Measurements as given in the supplement of paper PMC11061612.

Columns and labels:
[1] = tested on: HT-1376 (Bladder Carcinoma); assay: Bliss excess, mean over the matrix (fraction); higher = more synergy
Outline: (§1)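 After 24 hours at 37°C and 5% CO2 in 1536-well plates, cells in DMEM/F12 or RPMI plus 10% FBS received two-drug dose matrices for 72 hours. Viability came from CellTiter-Glo 2.0 luminescence and was scaled as inhibition, anchored at 0 by vehicle wells and at 1 by blank wells. Combination Emax is taken as the second-highest inhibition in the matrix, and Bliss excess as the observed combination effect less EA + EB − EA·EB, with EA and EB the single-agent effects.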

[2] = tested on: DoTc2-4510 (Cervical Carcinoma); assay: as above
Outline: as §1

[3] = tested on: CAL-148 (Breast Carcinoma); assay: as above
Outline: as §1

[4] = tested on: B-CPAP (Thyroid Gland Carcinoma); assay: as above
Outline: as §1

[5] = tested on: ES4 (Ewing's Sarcoma); assay: as above
Outline: as §1

[6] = tested on: LU-135 (Small Cell Lung Carcinoma); assay: as above
Outline: as §1

[7] = tested on: LNCaP-Clone-FGC (Prostate Carcinoma); assay: as above
Outline: as §1

[8] = tested on: Calu-3 (Lung Adenocarcinoma); assay: as above
Outline: as §1

[9] = tested on: SK-ES-1 (Ewing's Sarcoma); assay: as above
Outline: as §1

[10] = tested on: NCI-H2085 (Non-Small Cell Lung Carcinoma); assay: as above
Outline: as §1

[11] = tested on: KURAMOCHI (Ovarian Carcinoma); assay: as above
Outline: as §1

[12] = tested on: HCC1806 (Breast Carcinoma); assay: as above
Outline: as §1

[13] = tested on: ME-1 (Acute Myeloid Leukemia); assay: as above
Outline: as §1

[14] = tested on: AGS (Gastric Carcinoma); assay: as above
Outline: as §1

[15] = tested on: Hs-578-T (Breast Carcinoma); assay: combination Emax (second highest fraction inhibited in the dose matrix, 72 h); higher = more inhibition; extreme values may be limits of the assay
Outline: as §1

[16] = tested on: 42-MG-BA (Glioblastoma); assay: as above
Outline: as §1

[17] = tested on: TE-15 (Esophageal Squamous Cell Carcinoma); assay: as above
Outline: as §1

[18] = tested on: EC-GI-10 (Esophageal Squamous Cell Carcinoma); assay: as above
Outline: as §1

[19] = tested on: KP-1N (Pancreatic Carcinoma); assay: as above
Outline: as §1

[20] = tested on: T98G (Glioblastoma); assay: as above
Outline: as §1
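For Bliss excess, mean over the matrix in this document: after 72 h of two-drug dosing.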

SMILES | Bliss excess [1] | Bliss excess [2] | Bliss excess [3] | Bliss excess [4] | Bliss excess [5] | Bliss excess [6] | Bliss excess [7] | Bliss excess [8] | Bliss excess [9] | Bliss excess [10] | Bliss excess [11] | Bliss excess [12] | Bliss excess [13] | Bliss excess [14] | combination Emax [15] | combination Emax [16] | combination Emax [17] | combination Emax [18] | combination Emax [19] | combination Emax [20]
COc1nnc2ccc(N3CCC(c4ccc(OCCN5CCN(C)C(=O)[C@H]5C)cc4)CC3)nn12 [AZD5153] + Cc1c2c(nn1C)CSCc1cc(n(C)n1)CSc1cc(c3ccccc3c1)OCCCc1c(C(=O)O)n(C)c3c-2c(Cl)ccc13 [AZD5991] (first compound max 1 µM, 7x7, partner max 1 µM) | -0.0135 | -0.0358 | 0.0117 | -0.0224 | -0.0665 | 0.0517 | -0.0722 | -0.0288 | 0.0048 | -0.0081 | 0.0332 | -0.0137 | -0.0162 | -0.0166 | 0.896 | 0.883 | 0.627 | 0.671 | 0.582 | 0.459
COc1cccc(OCCCN)c1-c1cc(Nc2cnc(C#N)cn2)n[nH]1 [Prexasertib] + CCc1c2c(nc3ccc(O)cc13)-c1cc3c(c(=O)n1C2)COC(=O)[C@]3(O)CC [SN-38] (first compound max 1 µM, 7x7, partner max 0.3 µM) | -0.0265 | 0.0167 | -0.0388 | 0.0695 | -0.0923 | -0.0623 | -0.0782 | -0.0003 | -0.0081 | -0.0245 | 0.0311 | -0.001 | 0.0086 | -0.0467 | 0.982 | 1 | 0.921 | 1 | 0.64 | 0.904
COc1nnc2ccc(N3CCC(c4ccc(OCCN5CCN(C)C(=O)[C@H]5C)cc4)CC3)nn12 [AZD5153] + C[C@@H]1COCCN1C2=NC(=NC(=C2)C3(CC3)[S@](=N)(=O)C)C4=C5C=CNC5=NC=C4 [AZD6738] (first compound max 1 µM, 7x7, partner max 10 µM) | -0.0006 | 0.0412 | 0.0315 | 0.0219 | 0.0104 | 0.0397 | -0.0318 | 0.0066 | 0.0023 | 0.0107 | 0.0157 | 0.0113 | -0.0693 | 0.0381 | 0.8 | 0.793 | 0.889 | 0.604 | 0.69 | 0.798
C[C@@H](c1ccc2nccn2c1)n1nnc2ncc(-c3cnn(C)c3)nc21 [Savolitinib] + Cc1c2c(nn1C)CSCc1cc(n(C)n1)CSc1cc(c3ccccc3c1)OCCCc1c(C(=O)O)n(C)c3c-2c(Cl)ccc13 [AZD5991] (first compound max 1 µM, 7x7, partner max 1 µM) | -0.0206 | -0.0204 | 0.0087 | -0.0221 | -0.0724 | -0.0056 | -0.0148 | -0.021 | -0.0326 | -0.0401 | -0.0332 | 0.0014 | -0.051 | -0.0855 | 0.47 | 0.192 | 0.282 | 0.285 | 0.194 | 0.12
CN(C)CCCOc1ccc(-c2ccc3ncc4c(c3c2)n(C2CCOCC2)c(=O)n4C)cn1 [AZD0156] + C=CCn1c(=O)c2cnc(Nc3ccc(N4CCN(C)CC4)cc3)nc2n1-c1cccc(C(C)(C)O)n1 [AZD1775] (first compound max 1 µM, partner max 1 µM) | -0.134 | -0.0204 | -0.0318 | -0.0255 | 0.0122 | 0.0024 | -0.045 | -0.0378 | 0.0045 | -0.0406 | -0.031 | -0.0219 | -0.0276 | -0.0517 | 0.784 | 0.29 | 0.454 | 0.849 | 0.471 | 0.657
C=CCn1c(=O)c2cnc(Nc3ccc(N4CCN(C)CC4)cc3)nc2n1-c1cccc(C(C)(C)O)n1 [AZD1775] + C1CN(CCC1(C(=O)N[C@@H](CCO)C2=CC=C(C=C2)Cl)N)C3=NC=NC4=C3C=CN4 [Capivasertib] (first compound max 3 µM, partner max 3 µM) | 0.0513 | 0.0408 | -0.0405 | 0.0065 | 0.0691 | 0.0467 | -0.0492 | -0.0761 | 0.0726 | 0.0047 | -0.072 | 0.0151 | -0.0726 | 0.0159 | 0.841 | 0.733 | 0.724 | 0.965 | 0.633 | 0.785
CN(CCO)CC[C@H](CSc1ccccc1)Nc1ccc(S(=O)(=O)NC(=O)c2ccc(N3CCC([C@@H](O)c4ccccc4-c4ccc(Cl)cc4)CC3)cc2)cc1S(=O)(=O)C(F)(F)F [AZD4320] + C1CN(CCC1(C(=O)N[C@@H](CCO)C2=CC=C(C=C2)Cl)N)C3=NC=NC4=C3C=CN4 [Capivasertib] (first compound max 1 µM, 7x7, partner max 3 µM) | -0.0959 | 0.0501 | 0.0346 | -0.0377 | -0.0333 | 0.0051 | -0.0239 | -0.0149 | 0.0827 | -0.0401 | -0.0393 | -0.0078 | -0.0374 | -0.0081 | 0.639 | 0.594 | 0.141 | 0.204 | 0.0744 | 0.249
Cc1cc2ncnn2cc1Nc1ncc2c(n1)n(C1CCOCC1)c(=O)n2C [AZD7648] + CN(C)CCCOc1ccc(-c2ccc3ncc4c(c3c2)n(C2CCOCC2)c(=O)n4C)cn1 [AZD0156] (first compound max 10 µM, 7x7, partner max 1 µM) | 0.0037 | 0.0054 | 0.0102 | -0.0206 | -0.0163 | -0.0088 | 0.0016 | -0.0252 | 0.0628 | -0.0343 | -0.064 | 0.0654 | -0.0326 | 0.0178 | 0.513 | 0.398 | 0.236 | 0.161 | 0.188 | 0.266
COc1cccc(OCCCN)c1-c1cc(Nc2cnc(C#N)cn2)n[nH]1 [Prexasertib] + C=CCn1c(=O)c2cnc(Nc3ccc(N4CCN(C)CC4)cc3)nc2n1-c1cccc(C(C)(C)O)n1 [AZD1775] (first compound max 1 µM, partner max 1 µM) | -0.0538 | 0.048 | 0.136 | 0.154 | 0.0978 | -0.0004 | -0.0172 | 0.0255 | 0.0454 | 0.124 | 0.0282 | 0.0552 | 0.0408 | 0.195 | 0.942 | 0.941 | 0.866 | 0.956 | 0.575 | 0.917
Cn1cnc2c(F)c(Nc3ccc(Br)cc3Cl)c(C(=O)NOCCO)cc21 [Selumetinib] + C[C@@H]1COCCN1C2=NC(=NC(=C2)C3(CC3)[S@](=N)(=O)C)C4=C5C=CNC5=NC=C4 [AZD6738] (first compound max 10 µM, 7x7, partner max 10 µM) | -0.021 | -0.0282 | -0.0407 | -0.0026 | -0.039 | 0.0383 | -0.0018 | -0.0295 | -0.005 | -0.0063 | 0.0517 | 0.0496 | -0.0752 | 0.0281 | 0.628 | 0.53 | 0.834 | 0.647 | 0.175 | 0.731
CC(=O)c1c(C)c2cnc(Nc3ccc(N4CCNCC4)cn3)nc2n(C2CCCC2)c1=O [Palbociclib] + Cc1c2c(nn1C)CSCc1cc(n(C)n1)CSc1cc(c3ccccc3c1)OCCCc1c(C(=O)O)n(C)c3c-2c(Cl)ccc13 [AZD5991] (first compound max 10 µM, 7x7, partner max 1 µM) | -0.0073 | -0.0143 | -0.0063 | -0.0722 | -0.046 | 0.0165 | 0.0049 | -0.0039 | -0.0088 | -0.0374 | 0.0188 | -0.0164 | -0.0141 | -0.04 | 0.372 | 0.391 | 0.435 | 0.543 | 0.212 | 0.4
CC(=O)c1c(C)c2cnc(Nc3ccc(N4CCNCC4)cn3)nc2n(C2CCCC2)c1=O [Palbociclib] + CC1(C)CCC(CN2CCN(c3ccc(C(=O)NS(=O)(=O)c4ccc(NCC5CCOCC5)c([N+](=O)[O-])c4)c(Oc4cnc5[nH]ccc5c4)c3)CC2)=C(c2ccc(Cl)cc2)C1 [Venetoclax] (first compound max 10 µM, 7x7, partner max 1 µM) | -0.0453 | -0.058 | -0.0161 | 0.0002 | -0.0334 | 0.0482 | 0.0267 | -0.0252 | 0.0758 | -0.0306 | -0.0418 | -0.0213 | -0.0012 | -0.0493 | 0.189 | 0.27 | 0.343 | 0.387 | 0.212 | 0.355
Cc1c2c(nn1C)CSCc1cc(n(C)n1)CSc1cc(c3ccccc3c1)OCCCc1c(C(=O)O)n(C)c3c-2c(Cl)ccc13 [AZD5991] + C=CCn1c(=O)c2cnc(Nc3ccc(N4CCN(C)CC4)cc3)nc2n1-c1cccc(C(C)(C)O)n1 [AZD1775] (first compound max 1 µM, partner max 1 µM) | 0.0345 | -0.0399 | 0.0567 | -0.053 | 0.0578 | -0.0654 | 0.0118 | 0.0194 | -0.0008 | -0.0165 | -0.0346 | 0.0493 | 0.041 | -0.0145 | 0.874 | 0.986 | 0.548 | 0.946 | 0.458 | 0.674
COc1nnc2ccc(N3CCC(c4ccc(OCCN5CCN(C)C(=O)[C@H]5C)cc4)CC3)nn12 [AZD5153] + CCN(CCO)CCCOc1ccc2c(Nc3cc(CC(=O)Nc4cccc(F)c4)[nH]n3)ncnc2c1 [AZD2811] (first compound max 1 µM, 7x7, partner max 1 µM) | -0.0381 | -0.0067 | -0.0361 | -0.0367 | 0.0055 | -0.0449 | -0.0081 | -0.0303 | -0.0695 | -0.0594 | -0.0149 | -0.042 | -0.0534 | 0.0294 | 0.771 | 0.783 | 0.486 | 0.425 | 0.542 | 0.491
